Patent publication US8871226B2, “Methods and compositions for the treatment and diagnosis of cancer” (Hafid Mahboubi, priority 2003, dated 2014)

Legend:
[1] = system: C. cruzii; details: infections caused by C. cruzii; cited from earlier work
[2] = system: C. glabrata; details: some other species of Candida, particularly C. glabrata; cited from earlier work
[3] = system: candidiasis; details: in vivo; cited from earlier work
[4] = system: tumour of the myoma of the uterus; test: Antimycotic treatment of a Candida-seropositive patient, tumour of the myoma of the uterus; type: in vivo, human; details: Patient 1, Candida rate 640; 1 tablet 2x day for two weeks, then 1 tablet a day for 30 days
Source text: (§1) The inventor has performed many serological tests on patients suffering from various illnesses and particularly from different types of cancer. The inventor has shown that, in many of the patients who tested positive for Candida in the serological tests, after antimycotic treatments, a full recovery was observed, with complete disappearance of the tumours in the case of the patients affected by cancer.
A patient, hospitalised, suffering from a tumour of the myoma of the uterus.
The patient was treated with Nizoral (1 tablet 2× day for two weeks, then 1 tablet a day for 30 days).

[5] = system: Prostate Cancer; test: Antimycotic treatment of Candida-seropositive patients, prostate cancer; type: in vivo, human
Source text: as §1
Patient 2: person with Prostate Cancer.
Positive for Candida serological test (640)
The patient was treated with Orungal, 100 mg capsules, 1×1 caps a day for 1 month.
Patient 7: person with Prostate Cancer
Positive candida serological test (320).
The patient was treated with Nizoral (1 tablet 2× day for two weeks, then 1 tablet a day for 30 days.

[6] = system: Psoriasis; test: Antimycotic treatment of a Candida-seropositive patient, psoriasis; type: in vivo, human; details: Patient 4, Candida serological test 640; 100 mg 1 capsule a day for 1 month
Protocol: as §1
Positive Candida serological test (640)
The patient was treated with Diflucan, 100 mg 1×1 capsule a day. For 1 month.

[7] = system: Cancer of the Ovary with Liver Metastasis; test: Antimycotic treatment of a Candida-seropositive patient, cancer of the ovary with liver metastasis; type: in vivo, human; details: Patient 6, Candida serological test 640; 100 mg 1 capsule a day for 30 days
Protocol: The inventor has performed many serological tests on patients suffering from various illnesses and particularly from different types of cancer.
Patient 6: person with Cancer of the Ovary with Liver Metastasis.
The patient was treated with Diflucan, 100 mg 1 capsule a day. For 30 days

[8] = system: Breast Cancer; test: Antimycotic treatment of a Candida-seropositive patient, breast cancer; type: in vivo, human; details: Patient 3, Candida serological test 320; capsule 100 mg, 1 caps a day for 60 days
Protocol: as §1
Patient 3: person with Breast Cancer
The patient was treated with Orungal, capsule 100 mg, 1×1 caps a day for 60 days.

[9] = system: Ulcerative Colitis; test: Antimycotic treatment of a Candida-seropositive patient, ulcerative colitis; type: in vivo, human; details: Patient 5, serological test 320; 100 mg 1 caps a day for 28 days
Protocol: as §1
Patient 5: Ulcerative Colitis.
Positive serological test (320).
The patient was treated with Orungal, 100 mg 1×1 caps a day, for 28 days.

## OC(Cn1cncn1)(Cn1cncn1)c1ccc(F)cc1F [Fluconazole, fluconazole]
[1]
  Response of infections to treatment: do not respond
[2]
  Sensitivity compared with C. albicans: less sensitive
[3]
  Effectiveness in candidiasis compared with amphotericin B: as effective as amphotericin B

## CC(=O)N1CCN(c2ccc(OCC3COC(Cn4ccnc4)(c4ccc(Cl)cc4Cl)O3)cc2)CC1 (stereo not shown) [Nizoral]
[4]
  Result of treatment (tumour): Disappearance of the tumour at the end of the treatment
[5]; Patient 7, Candida serological test 320, 1 tablet 2x day for two weeks, then 1 tablet a day for 30 days
  Result of treatment: Complete recovery

## OC(Cn1cncn1)(Cn1cncn1)c1ccc(F)cc1F [Diflucan]
[6]
  Result of treatment: Complete recovery at the end of the treatment
[7]
  Result of treatment: Complete recovery with disappearance of the tumours

## CCC(C)n1ncn(-c2ccc(N3CCN(c4ccc(OCC5COC(Cn6cncn6)(c6ccc(Cl)cc6Cl)O5)cc4)CC3)cc2)c1=O (stereo not shown) [Orungal]
[8]
  Result of treatment: Complete recovery at the end of the treatment
[9]
  Result of treatment: Complete recovery at the end of the treatment
[5]; Patient 2, Candida serological test 640, 100 mg capsules, 1 caps a day for 1 month
  Result of treatment: Complete recovery at the end of the treatment with disappearance of the tumour
